Results taken from the supplement of paper PMC4862054.

Assays:
DU-4475 [1] = test: normalised viability (% of control), CellTiter-Blue; higher = more viable cells (about 100 = DMSO control); conditions: 3000 nM; incubation time: 72 h
Description: (§1)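 DSRT, CellTiter-Blue viability, 72 h incubation. Signal is normalised to DMSO and benzethonium chloride controls. Value is the normalised response at dose 8.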

CAL-148 [2] = test: as above; conditions: 3000 nM; incubation time: 72 h
Description: as §1

MDA-MB-453 [3] = test: as above; conditions: 3000 nM; incubation time: 72 h
Description: as §1

CAL-51 [4] = test: as above; conditions: 3000 nM; incubation time: 72 h
Description: as §1

CAL-85-1 [5] = test: as above; conditions: 3000 nM; incubation time: 72 h
Description: as §1

HDQ-P1 [6] = test: as above; conditions: 3000 nM; incubation time: 72 h
Description: as §1

DU-4475 [7] = test: drug sensitivity score (DSS), CellTox Green (DSS (AUC-based score)); higher = stronger drug effect (viability inhibition or cytotoxicity); extreme values may be limits of the assay; conditions: incubation time: 72 h
Summary of the method: (§2)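 In 384-well plates, compound was laid out at 5 concentrations in 10-fold steps over a 10,000-fold range specific to each compound, and breast cancer cell lines were seeded on top in 20 µl suspension for a 72 h incubation. CellTox Green fluorescence and then CellTiter-Glo luminescence were read, and each plate was normalised to 0.1 % DMSO and a positive kill control. The drug sensitivity score was calculated from the area under the fitted dose-response curve.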

BT-549 = test: as above; conditions: incubation time: 72 h
Summary of the method: as §2

MCF-10A = test: as above; conditions: incubation time: 72 h
Summary of the method: as §2

MDA-MB-468 = test: as above; conditions: incubation time: 72 h
Summary of the method: as §2

MDA-MB-436 = test: as above; conditions: incubation time: 72 h
Summary of the method: as §2

CAL-148 [8] = test: as above; conditions: incubation time: 72 h
Summary of the method: as §2

CAL-120 = test: as above; conditions: incubation time: 72 h
Summary of the method: as §2

MDA-MB-453 [9] = test: as above; conditions: incubation time: 72 h
Summary of the method: as §2

CAL-51 [10] = test: as above; conditions: incubation time: 72 h
Summary of the method: as §2

HCC1937 = test: as above; conditions: incubation time: 72 h
Summary of the method: as §2

MDA-MB-231 = test: as above; conditions: incubation time: 72 h
Summary of the method: as §2

Hs578T = test: as above; conditions: incubation time: 72 h
Summary of the method: as §2

CAL-85-1 [11] = test: as above; conditions: incubation time: 72 h
Summary of the method: as §2

HDQ-P1 [12] = test: as above; conditions: incubation time: 72 h
Summary of the method: as §2

DU-4475 [13] = test: normalised viability (% of control), CellTiter-Blue; higher = more viable cells (about 100 = DMSO control); conditions: 10000 nM; incubation time: 72 h
Description: (§3)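 DSRT, CellTiter-Blue viability, 72 h incubation. Signal is normalised to DMSO and benzethonium chloride controls. Value is the normalised response at dose 9.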

CAL-148 [14] = test: as above; conditions: 10000 nM; incubation time: 72 h
Description: as §3

MDA-MB-453 [15] = test: as above; conditions: 10000 nM; incubation time: 72 h
Description: as §3

CAL-51 [16] = test: as above; conditions: 10000 nM; incubation time: 72 h
Description: as §3

CAL-85-1 [17] = test: as above; conditions: 10000 nM; incubation time: 72 h
Description: as §3

HDQ-P1 [18] = test: as above; conditions: 10000 nM; incubation time: 72 h
Description: as §3

MFM-223 = test: drug sensitivity score (DSS), CellTox Green (DSS (AUC-based score)); higher = stronger drug effect (viability inhibition or cytotoxicity); extreme values may be limits of the assay; conditions: incubation time: 72 h
Summary of the method: as §2

Row | Compound | normalised viability (DU-4475 [1]) | normalised viability (CAL-148 [2]) | normalised viability (MDA-MB-453 [3]) | normalised viability (CAL-51 [4]) | normalised viability (CAL-85-1 [5]) | normalised viability (HDQ-P1 [6]) | drug sensitivity score (DU-4475 [7]) | drug sensitivity score (BT-549) | drug sensitivity score (MCF-10A) | drug sensitivity score (MDA-MB-468) | drug sensitivity score (MDA-MB-436) | drug sensitivity score (CAL-148 [8]) | drug sensitivity score (CAL-120) | drug sensitivity score (MDA-MB-453 [9]) | drug sensitivity score (CAL-51 [10]) | drug sensitivity score (HCC1937) | drug sensitivity score (MDA-MB-231) | drug sensitivity score (Hs578T) | drug sensitivity score (CAL-85-1 [11]) | drug sensitivity score (HDQ-P1 [12]) | normalised viability (DU-4475 [13]) | normalised viability (CAL-148 [14]) | normalised viability (MDA-MB-453 [15]) | normalised viability (CAL-51 [16]) | normalised viability (CAL-85-1 [17]) | normalised viability (HDQ-P1 [18]) | drug sensitivity score (MFM-223)
1 | Nc1nc(F)nc2c1ncn2[C@@H]1O[C@H](CO)[C@@H](O)[C@@H]1O [Fludarabine] | 104% | 84.5% | 111% | 104% | 96.7% | 108% | 0 | 0 | 0 | 0 | 0 | 0 | 0 | 0 | 0 | 0 | 0 | 0 | 0 | 0 | 99.3% | 64.9% | 93.6% | 101% | 78.1% | 80.1% | 
2 | O=C(O)C(=O)O.[NH-][C@@H]1CCCC[C@H]1[NH-].[Pt+2] [Oxaliplatin] | 108% | 82.8% | 100% | 118% | 84.5% | 102% | 0 | 0 | 1.93 | 0 | 0 |  | 0 | 0 | 0 | 0 | 0 | 0 | 0 | 1 | 41.8% | 18.1% | 28.5% | 39% | 66.5% | 60.2% | 0
3 | COc1cc([C@@H]2c3cc4c(cc3[C@@H](O[C@@H]3O[C@@H]5CO[C@@H](c6cccs6)O[C@H]5[C@H](O)[C@H]3O)[C@H]3COC(=O)[C@H]23)OCO4)cc(OC)c1O [Teniposide] | 2.12% | 9.86% | 52.4% | 12.6% | 41% | 67.3% | 4.49 | 0 |  | 6.45 | 0 | 25.1 | 4.54 | 0 | 11.8 | 8.06 | 10.8 | 2.53 | 7.07 | 7.08 | -1.93% | 0.81% | 30.6% | 3.14% | 26.4% | 53.2% | 6.4
4 | COc1cc2nccc(Oc3ccc(NC(=O)Nc4cc(C)on4)c(Cl)c3)c2cc1OC [Tivozanib] | 118% | 94% | 51.9% | 80% | 92.8% | 67.6% | 0 | 0 | 0 | 0 | 0 | 0 | 0 | 0 |  | 0 | 0 | 3.86 | 0 | 0 | 107% | 96.8% | 28.3% | 40.7% | 82.9% | 55.9% | 0
5 | CC(=O)Nc1cccc(-n2c(=O)n(C3CC3)c(=O)c3c(Nc4ccc(I)cc4F)n(C)c(=O)c(C)c32)c1 [Trametinib] |  |  |  |  |  |  | 7.36 | 0 | 4.18 | 0 | 0 | 0 | 1.74 | 0 | 0 | 0 | 12 | 0 | 7.34 | 0 |  |  |  |  |  |  | 0
